Source: the supplement of paper PMC10307832

Tests used:
Assay in all cases: relative viability (nuclei count vs DMSO), 5 days (fraction); higher = more cells survive
Metformin + Palbociclib = compound: CN(C)C(=N)NC(=N)N [Metformin] + CC(=O)c1c(C)c2cnc(Nc3ccc(N4CCNCC4)cn3)nc2n(C2CCCC2)c1=O [Palbociclib] (partner 0.5 µM)
Procedure, shortened: (§1)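 Lung cancer cell lines in 1536-well plates got either a single drug or a fixed anchor-drug dose together with five library-drug doses (not always all listed) in √10 steps, by pin tool, on the day after seeding. Nuclei were counted after 5 days, and relative viability is the treated-to-vehicle ratio of nuclei counts. Values are medians of duplicate plates.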

Apatinib + Decitabine = compound: N#CC1(c2ccc(NC(=O)c3cccnc3NCc3ccncc3)cc2)CCCC1 [Apatinib] + Nc1ncn([C@H]2C[C@H](O)[C@@H](CO)O2)c(=O)n1 [Decitabine] (partner 2 µM)
Procedure, shortened: as §1

Apatinib + Alpelisib = compound: N#CC1(c2ccc(NC(=O)c3cccnc3NCc3ccncc3)cc2)CCCC1 [Apatinib] + Cc1nc(NC(=O)N2CCC[C@H]2C(N)=O)sc1-c1ccnc(C(C)(C)C(F)(F)F)c1 [Alpelisib] (partner 2 µM)
Procedure, shortened: as §1

Metformin + Pemetrexed = compound: CN(C)C(=N)NC(=N)N [Metformin] + Nc1nc2[nH]cc(CCc3ccc(C(=O)N[C@@H](CCC(=O)O)C(=O)O)cc3)c2c(=O)[nH]1 [Pemetrexed] (partner 0.2 µM)
Procedure, shortened: as §1

Row | Cell Line | relative viability (Metformin + Palbociclib; first compound 31.62 µM) | relative viability (Metformin + Palbociclib; first compound 100 µM) | relative viability (Metformin + Palbociclib; first compound 316.23 µM) | relative viability (Metformin + Palbociclib; first compound 1000 µM) | relative viability (Apatinib + Decitabine; first compound 0.08 µM) | relative viability (Apatinib + Decitabine; first compound 0.253 µM) | relative viability (Apatinib + Decitabine; first compound 0.8 µM) | relative viability (Apatinib + Decitabine; first compound 2.53 µM) | relative viability (Apatinib + Decitabine; first compound 8 µM) | relative viability (Apatinib + Alpelisib; first compound 0.08 µM) | relative viability (Apatinib + Alpelisib; first compound 0.253 µM) | relative viability (Apatinib + Alpelisib; first compound 0.8 µM) | relative viability (Apatinib + Alpelisib; first compound 2.53 µM) | relative viability (Apatinib + Alpelisib; first compound 8 µM) | relative viability (Metformin + Pemetrexed; first compound 31.62 µM) | relative viability (Metformin + Pemetrexed; first compound 100 µM) | relative viability (Metformin + Pemetrexed; first compound 316.23 µM) | relative viability (Metformin + Pemetrexed; first compound 1000 µM) | relative viability (Metformin + Palbociclib; first compound 10 µM) | relative viability (Metformin + Pemetrexed; first compound 10 µM)
1 | 201T | 0.376 | 0.397 | 0.329 | 0.382 | 0.863 | 0.895 | 0.842 | 0.85 | 0.781 | 1.01 | 1.08 | 1.03 | 1.09 | 1.05 | 0.329 | 0.313 | 0.289 | 0.353 | – | –
2 | NCI-H2009 | 0.321 | 0.228 | 0.122 | 0.202 | 0.367 | 0.411 | 0.35 | 0.508 | 0.581 | 1.13 | 1.2 | 1.1 | 1.02 | 0.893 | 0.943 | 0.891 | 0.814 | 0.891 | 0.194 | 0.874
3 | HCC-78 | 0.507 | 0.452 | 0.505 | 0.483 | 0.7 | 0.694 | 0.692 | 0.701 | 0.913 | 0.414 | 0.291 | 0.364 | 0.25 | 0.382 | 0.878 | 1.15 | 0.894 | 0.908 | 0.479 | –
4 | LCLC-97TM1 | 0.239 | 0.321 | 0.209 | 0.21 | 0.268 | 0.244 | 0.237 | 0.185 | 0.228 | 0.281 | 0.21 | 0.256 | 0.206 | 0.154 | 0.198 | 0.198 | 0.171 | 0.188 | – | –
5 | NCI-H661 | 0.391 | 0.371 | 0.37 | 0.365 | 0.615 | 0.543 | 0.542 | 0.581 | 0.599 | 0.576 | 0.43 | 0.564 | 0.623 | 0.597 | 0.934 | 0.877 | 0.858 | 0.879 | 0.382 | 0.9
6 | NCI-H650 | 0.278 | 0.385 | 0.326 | 0.348 | 0.35 | 0.331 | 0.332 | 0.418 | 0.626 | 1.23 | 1.25 | 1.04 | 1.03 | 0.987 | 0.993 | 0.878 | 0.941 | 1.1 | 0.33 | 0.846
7 | NCI-H1915 | 0.406 | 0.515 | 0.462 | 0.463 | 0.296 | 0.266 | 0.265 | 0.339 | 0.388 | 1.08 | 1.09 | 1.04 | 0.916 | 0.81 | 0.438 | 0.404 | 0.379 | 0.435 | – | –
8 | COR-L23 | 0.289 | 0.218 | 0.208 | 0.249 | 0.514 | 0.509 | 0.452 | 0.427 | 0.413 | 0.966 | 0.743 | 0.772 | 0.774 | 0.652 | 0.186 | 0.209 | 0.195 | 0.203 | 0.237 | 0.196
9 | NCI-H3122 | 0.188 | 0.228 | 0.191 | 0.184 | 0.505 | 0.431 | 0.44 | 0.495 | 0.433 | 0.781 | 0.796 | 0.822 | 0.761 | 0.714 | 0.171 | 0.197 | 0.184 | 0.222 | 0.174 | 0.178
10 | LOU-NH91 | 0.523 | 0.441 | 0.518 | 0.517 | 0.85 | 0.827 | 0.732 | 0.741 | 0.776 | 0.762 | 0.699 | 0.586 | 0.616 | 0.568 | 0.394 | 0.409 | 0.385 | 0.437 | 0.524 | 0.438
11 | IA-LM | – | – | – | – | – | – | – | – | – | 0.793 | 0.673 | 0.665 | 0.558 | 0.337 | – | – | – | – | – | –
12 | ABC-1 | 0.9 | 0.62 | 0.592 | 0.279 | – | 1.04 | 1.19 | 1.21 | 0.895 | – | 1.2 | 1.1 | 1.01 | 1.1 | – | – | – | – | – | –
13 | NCI-H2228 | 0.782 | 0.747 | 0.526 | 0.946 | – | – | – | – | – | 0.785 | 0.738 | 0.648 | 0.542 | 0.527 | 0.199 | 0.381 | 0.28 | 0.337 | 0.626 | 0.313
14 | ChaGo-K-1 | 0.897 | 0.957 | 0.716 | 0.967 | 0.536 | 0.56 | 0.522 | 0.53 | 0.43 | – | – | – | – | – | 0.277 | 0.259 | 0.257 | 0.256 | 0.92 | 0.259
15 | NCI-H1648 | 0.299 | 0.296 | 0.294 | 0.294 | 0.66 | 0.502 | 0.479 | 0.428 | 0.508 | – | – | – | – | – | 0.664 | 0.876 | 0.67 | 0.713 | – | –
16 | NCI-H1563 | – | – | – | – | – | – | – | – | – | 0.967 | 0.982 | 0.929 | 0.93 | 0.804 | 0.899 | 0.847 | 0.89 | 0.921 | – | 0.874
17 | NCI-H1703 | – | – | – | – | – | – | – | – | – | 0.289 | 0.252 | 0.25 | 0.175 | 0.17 | – | – | – | – | – | –
18 | NCI-H1299 | – | – | – | – | – | – | – | – | – | 1.06 | 1.05 | 1.03 | 1.04 | 0.929 | – | – | – | – | – | –
19 | NCI-H522 | 1.24 | 1.06 | 1.08 | 1.21 | 0.685 | 0.63 | 0.749 | 0.606 | 0.672 | – | – | – | – | – | 1.21 | 1.25 | 1.12 | 1.46 | 1.7 | 1.15
20 | NCI-H2342 | 0.681 | 0.548 | 0.522 | 0.519 | 0.704 | 0.767 | 0.709 | 0.799 | 0.791 | – | – | – | – | – | 1.13 | 0.751 | 0.786 | 0.752 | – | –
21 | A549 | – | – | – | – | 0.257 | 0.264 | 0.247 | 0.344 | 0.448 | 0.784 | 0.844 | 0.919 | 0.78 | 0.65 | – | – | – | – | – | –
22 | NCI-H727 | 0.78 | 0.818 | – | 0.618 | 0.89 | – | 0.973 | 0.985 | 0.729 | 0.64 | 0.625 | 0.53 | 0.512 | 0.506 | – | – | – | – | 0.672 | –
